According to patent US20250057912A1, “Compounds” (priority 2021, published 2025):

Key:
[1] = Pharmacokinetic characterisation in Beagle dogs, single s.c. injection, dose range (Example 6); assay type: in vivo; conditions: male, plasma, dog, SC
Text: The dosing vehicle was PBS buffer, pH 7.

[2] = molecular target: T1, α4β7 RPMI8866/MAdCAM-1 adhesion (Homo sapiens, UniProt P13612+P26010); assay: Integrin α4β7-MAdCAM cell adhesion assay, RPMI8866 cells (Example 7); assay type: cell-based
T1 construct: CFSE-labelled RPMI 8866 cells were added to the plate coated with rhMAdCAM-1; host or cells: RPMI 8866
T1 sequence (P13612 34-1032): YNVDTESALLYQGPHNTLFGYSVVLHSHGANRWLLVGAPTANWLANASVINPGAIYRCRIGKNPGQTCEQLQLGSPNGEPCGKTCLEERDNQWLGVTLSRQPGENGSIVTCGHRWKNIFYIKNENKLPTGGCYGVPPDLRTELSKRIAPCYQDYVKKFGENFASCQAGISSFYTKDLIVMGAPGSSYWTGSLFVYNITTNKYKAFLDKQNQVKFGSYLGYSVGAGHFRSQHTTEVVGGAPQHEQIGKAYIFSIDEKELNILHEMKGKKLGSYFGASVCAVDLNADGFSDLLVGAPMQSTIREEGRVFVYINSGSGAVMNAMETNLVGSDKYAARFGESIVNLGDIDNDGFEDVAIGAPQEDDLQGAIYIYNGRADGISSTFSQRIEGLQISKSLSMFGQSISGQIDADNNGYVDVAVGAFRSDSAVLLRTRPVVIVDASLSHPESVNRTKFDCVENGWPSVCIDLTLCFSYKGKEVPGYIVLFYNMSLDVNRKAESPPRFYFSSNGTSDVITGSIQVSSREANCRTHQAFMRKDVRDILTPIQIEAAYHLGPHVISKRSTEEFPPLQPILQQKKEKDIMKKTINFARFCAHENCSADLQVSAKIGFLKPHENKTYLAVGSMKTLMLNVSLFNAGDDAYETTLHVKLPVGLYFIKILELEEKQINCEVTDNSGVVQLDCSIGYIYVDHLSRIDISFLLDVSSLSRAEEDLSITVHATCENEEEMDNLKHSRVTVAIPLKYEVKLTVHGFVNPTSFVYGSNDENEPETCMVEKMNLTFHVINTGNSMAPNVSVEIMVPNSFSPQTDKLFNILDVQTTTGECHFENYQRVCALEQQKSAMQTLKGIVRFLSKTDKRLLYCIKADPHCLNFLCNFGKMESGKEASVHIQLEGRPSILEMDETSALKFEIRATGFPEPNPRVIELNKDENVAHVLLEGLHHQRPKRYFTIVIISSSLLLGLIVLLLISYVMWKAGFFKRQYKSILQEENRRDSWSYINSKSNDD
T1 sequence (P26010 20-798): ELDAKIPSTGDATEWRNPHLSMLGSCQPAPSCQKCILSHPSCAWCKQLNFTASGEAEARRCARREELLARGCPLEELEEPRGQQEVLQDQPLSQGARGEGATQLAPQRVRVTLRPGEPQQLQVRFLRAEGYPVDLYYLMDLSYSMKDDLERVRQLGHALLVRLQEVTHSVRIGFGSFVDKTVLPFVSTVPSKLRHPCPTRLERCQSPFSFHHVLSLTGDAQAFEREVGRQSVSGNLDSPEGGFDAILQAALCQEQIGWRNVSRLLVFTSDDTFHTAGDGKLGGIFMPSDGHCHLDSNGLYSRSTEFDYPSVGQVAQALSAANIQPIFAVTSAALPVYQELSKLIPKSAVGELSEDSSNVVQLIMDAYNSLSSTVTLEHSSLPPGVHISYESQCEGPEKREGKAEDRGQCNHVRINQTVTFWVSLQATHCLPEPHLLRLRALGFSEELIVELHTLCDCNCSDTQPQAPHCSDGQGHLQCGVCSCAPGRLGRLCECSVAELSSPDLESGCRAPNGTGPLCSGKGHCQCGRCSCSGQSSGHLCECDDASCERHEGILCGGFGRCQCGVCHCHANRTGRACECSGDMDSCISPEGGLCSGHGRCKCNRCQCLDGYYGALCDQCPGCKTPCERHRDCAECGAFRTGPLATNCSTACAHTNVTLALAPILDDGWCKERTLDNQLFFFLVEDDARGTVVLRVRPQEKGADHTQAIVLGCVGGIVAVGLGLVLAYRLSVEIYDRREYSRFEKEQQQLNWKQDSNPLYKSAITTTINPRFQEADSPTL
Text: The cells were pelleted by centrifugation and resuspended in fresh pre-warmed complete culture medium and the cells were counted. […]

[3] = molecular target: T2, α4β1 RAMOS/VCAM-1 adhesion (Homo sapiens, UniProt P05556+P13612); assay: Integrin α4β1-VCAM-1 cell adhesion assay, RAMOS cells (Example 7); assay type: cell-based; conditions: rhVCAM-1 coated plate, DMEM binding buffer
T2 construct: host or cells: RAMOS
Method: The human B lymphocyte cell line RAMOS was obtained from the Zealand Pharma culture collection.
Compound 1 and Comparative compounds 1 and 2 were reconstituted in DMSO to a concentration of 10 mM.
CFSE-labelled RPMI 8866 cells were added to the plate coated with rhMAdCAM-1 and CFSE-labelled RAMOS cells were added to the plate coated with rhVCAM-1.
After incubation, unbound cells were washed away. The cell plates were emptied by inverting and residues of liquid were removed by blotting on paper towel.

T2 sequence (P05556 21-798, one chain of several): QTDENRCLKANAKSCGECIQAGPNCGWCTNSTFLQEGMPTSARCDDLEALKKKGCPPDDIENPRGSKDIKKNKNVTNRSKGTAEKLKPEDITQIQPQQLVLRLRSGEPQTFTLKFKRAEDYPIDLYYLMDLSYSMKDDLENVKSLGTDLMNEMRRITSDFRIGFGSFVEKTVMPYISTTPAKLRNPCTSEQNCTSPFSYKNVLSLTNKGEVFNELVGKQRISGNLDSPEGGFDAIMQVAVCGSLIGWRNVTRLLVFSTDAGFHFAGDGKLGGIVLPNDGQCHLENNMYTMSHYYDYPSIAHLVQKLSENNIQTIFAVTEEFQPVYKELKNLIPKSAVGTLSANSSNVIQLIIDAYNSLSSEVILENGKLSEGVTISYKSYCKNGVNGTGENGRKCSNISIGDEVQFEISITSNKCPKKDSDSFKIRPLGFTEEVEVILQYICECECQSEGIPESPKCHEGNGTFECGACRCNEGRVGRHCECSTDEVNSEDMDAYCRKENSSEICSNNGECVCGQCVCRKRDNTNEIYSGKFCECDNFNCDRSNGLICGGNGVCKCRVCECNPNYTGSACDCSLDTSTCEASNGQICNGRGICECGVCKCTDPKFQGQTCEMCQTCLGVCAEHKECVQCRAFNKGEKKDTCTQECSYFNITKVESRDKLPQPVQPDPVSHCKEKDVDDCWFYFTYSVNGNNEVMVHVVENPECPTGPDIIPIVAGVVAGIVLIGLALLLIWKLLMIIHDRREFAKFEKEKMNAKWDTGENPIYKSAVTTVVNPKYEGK

Q: With `CC[C@H](C)[C@@H]1NC(=O)[C@H](CC(=O)O)NC(=O)[C@H](CC(C)C)NC(=O)c2ccc(-c3ccc(N4CCN(C(=O)c5ccccc5-c5ccccc5C(=O)N5CCN(c6ccc(-c7ccc8cc7CNC(=O)[C@@H]7CCCN7[C@H](C(=O)NC(C)(C)C)[C@H](C)NC(=O)[C@H]([C@@H](C)CC)NC(=O)[C@H](CC(=O)O)NC(=O)[C@H](CC(C)C)NC8=O)cc6)CC5)CC4)cc3)c(c2)CNC(=O)[C@@H]2CCCN2[C@H](C(=O)NC(C)(C)C)[C@H](C)NC1=O` [Compound 1] as the compound, how does the AUC ([1]; 10 ug/kg) read?
A: Its AUC is 2.46 µM·h.

Q: And the AUC ([1]; 20 ug/kg)?
A: Its AUC is 5.68 µM·h.

Q: And the AUC ([1]; 50 ug/kg)?
A: The AUC was 11.6 µM·h.

Q: And the AUC ([1]; 100 ug/kg)?
A: The AUC was 58.6 µM·h.

Q: What about the AUC ([1]; 200 ug/kg) of the same compound?
A: The AUC was 72.5 µM·h.

Q: And the AUC ([1]; 400 ug/kg)?
A: Its AUC is 158 µM·h.

Q: And the IC50 ([2]; RPMI 8866 cells, rhMAdCAM-1 coated plate, DMEM binding buffer)?
A: The IC50 was 7.2 nM.

Q: And the Selectivity ratio ([2]; α4β1 RAMOS/VCAM-1 IC50 versus α4β7 RPMI8866/MAdCAM-1 IC50)?
A: The Selectivity ratio was 16.0.

Q: What about the IC50 [3] of the same compound?
A: Its IC50 is 115 nM.
